Reference: patent US20240376094A2, “SELECTIVE BCL-XL PROTAC COMPOUNDS AND METHODS OF USE” (Les Laboratoires Servier, priority 2021, published 2024)

Columns and labels:
Format in all cases: cell-based
[1] = test system: EBC-1 lung cancer cell line; assay: EBC-1 cell proliferation, CellTiter-Glo assay; conditions: Homo sapiens, 120 h; Ebc-1 cell viability, CTG assay, 5 days of treatment; read-out: CTG 5 day Ebc1 GI50
Method in brief: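 CellTiter-Glo read-out after 5-day compound treatment, normalised to untreated cells, with GI50 derived by four-parameter logistic regression. Ten concentrations spanning 0.508 nM–10 μM were added to 1000 EBC-1 cells per well the day after seeding. Assays required at least one cell doubling versus Day 0.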

MOLT-4 cells = assay: MOLT-4 cell viability, CTG assay; conditions: Homo sapiens, MOLT-4, 48 h
Method in brief: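 Viability read as total ATP luminescence (CTG) after 48 h compound treatment, 11 points at 5-fold spacing in triplicate, cells in RPMI 1640/10% FBS. IC50 is the concentration halving signal relative to control, four-parameter fit, averaged over at least 2 experiments.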

HiBiT-tagged BCL-xL = target: T1, HiBiT-tagged BCL-xL (Homo sapiens, UniProt Q07817); assay: NCI-H1650 BCL-xL protein levels, Nano-Glo HiBiT Lytic Detection; conditions: NCI-H1650 expressing HiBiT-tagged BCL-xL, overnight incubation, read-out: Bcl-xl HIBIT NCIH1650 DC50
T1 construct: expressed in transfected cells; host or cells: NCI-H1650 (ATCC No. CRL-5883), engineered HiBiT cell line
T1 sequence (Q07817 whole entry): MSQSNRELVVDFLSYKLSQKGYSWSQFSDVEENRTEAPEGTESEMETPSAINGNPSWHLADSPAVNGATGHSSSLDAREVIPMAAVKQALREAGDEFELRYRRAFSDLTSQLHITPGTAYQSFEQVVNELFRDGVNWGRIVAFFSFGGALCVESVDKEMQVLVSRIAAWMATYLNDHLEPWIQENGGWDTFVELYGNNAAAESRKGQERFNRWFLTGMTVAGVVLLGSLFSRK
Method in brief: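 HiBiT luminescence after cell lysis with LgBiT/furimazine reagent reported BCL-xL levels, expressed relative to untreated wells and fitted with a four-parameter logistic equation. Engineered NCI-H1650 cells were exposed overnight at 37° C to compound at final 0.508 nM-10 μM (10 points, triplicate plates).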

Bcl-xL = target: T2, Bcl-xL (Homo sapiens, UniProt Q07817); assay: HCT116 Bcl-xL degradation, capillary-based immunoassay (WES); conditions: HCT116, 24 h, 9-point serial dilution
T2 construct: Measured levels of Bcl-xL protein of HCT116 cells treated with the tested compounds; host or cells: HCT116
T2 sequence (Q07817 whole entry): as above
Method in brief: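 Bcl-xL protein level by capillary WES immunoassay in HCT116 lysates, as % of untreated after cofilin normalization. Compound exposure was 24 h at 10 and 100 nM and/or a 9-point series, in quadruplicate. Four-parameter fitting gave the DC50.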

SMILES | GI50 [1] [nM] | IC50 (MOLT-4 cells) [nM] | DC50 (HiBiT-tagged BCL-xL) [nM] | DC50 (Bcl-xL) [nM]
Cc1ncsc1-c1ccc(CNC(=O)[C@@H]2C[C@@H](O)CN2C(=O)[C@@H](NC(=O)C2(F)CC2)C(C)(C)C)c(OCCCCCCCCCCCN(C)CCOC23CC4(C)CC(C)(CC(Cn5ncc(-c6ccc(N7CCCc8c7nnc(Nc7nc9ccccc9s7)c8C)nc6C(=O)O)c5C)(C4)C2)C3)c1 [Example 76, 6-[3-(1,3-benzothiazol-2-ylamino)-4-methyl-6,7-dihydro-5H-pyrido[2,3-c]pyridazin-8-yl]-3-[1-[[3-[2-[11-[2-[[[(2S,4R)-1-[(2S)-2-[(1-fluorocyclopropanecarbonyl)amino]-3,3-dimethyl-butanoyl]-4-hydroxy-pyrrolidine-2-carbonyl]amino]methyl]-5-(4-methylthiazol-5-yl)phenoxy]undecyl-methyl-amino]ethoxy]-5,7-dimethyl-1-adamantyl]methyl]-5-methyl-pyrazol-4-yl]pyridine-2-carboxylic acid] | 134 | 8.34 | 3 | 0.28
Cc1ncsc1-c1ccc(CNC(=O)[C@@H]2C[C@@H](O)CN2C(=O)[C@@H](NC(=O)C2(F)CC2)C(C)(C)C)c(OCCCCCCCCCCCCCCCCN(C)CCOC23CC4(C)CC(C)(CC(Cn5ncc(-c6ccc(N7CCCc8c7nnc(Nc7nc9ccccc9s7)c8C)nc6C(=O)O)c5C)(C4)C2)C3)c1 [Example 77, 6-[3-(1,3-benzothiazol-2-ylamino)-4-methyl-6,7-dihydro-5H-pyrido[2,3-c]pyridazin-8-yl]-3-[1-[[3-[2-[16-[2-[[[(2S,4R)-1-[(2S)-2-[(1-fluorocyclopropanecarbonyl)amino]-3,3-dimethyl-butanoyl]-4-hydroxy-pyrrolidine-2-carbonyl]amino]methyl]-5-(4-methylthiazol-5-yl)phenoxy]hexadecyl-methyl-amino]ethoxy]-5,7-dimethyl-1-adamantyl]methyl]-5-methyl-pyrazol-4-yl]pyridine-2-carboxylic acid] | 167 | 4.54 | > 1670 | > 316
Cc1ncsc1-c1ccc(CNC(=O)[C@@H]2C[C@@H](O)CN2C(=O)[C@@H](NC(=O)C2(F)CC2)C(C)(C)SCCCCCCCCCCCCN(C)CCOC23CC4(C)CC(C)(CC(Cn5ncc(-c6ccc(N7CCCc8c7nnc(Nc7nc9ccccc9s7)c8C)nc6C(=O)O)c5C)(C4)C2)C3)cc1 [Example 79, 6-[3-(1,3-benzothiazol-2-ylamino)-4-methyl-6,7-dihydro-5H-pyrido[2,3-c]pyridazin-8-yl]-3-[1-[[3-[2-[12-[(2R)-2-[(1-fluorocyclopropanecarbonyl)amino]-3-[(2S,4R)-4-hydroxy-2-[[4-(4-methylthiazol-5-yl)phenyl]methylcarbamoyl]pyrrolidin-1-yl]-1,1-dimethyl-3-oxo-propyl]sulfanyldodecyl-methyl-amino]ethoxy]-5,7-dimethyl-1-adamantyl]methyl]-5-methyl-pyrazol-4-yl]pyridine-2-carboxylic acid] | 66 | 6.06 | > 1670 | 0.399
Cc1ncsc1-c1ccc(CNC(=O)[C@@H]2C[C@@H](O)CN2C(=O)[C@@H](NC(=O)C2(F)CC2)C(C)(C)SCCCCCCCCCCCCCCN(C)CCOC23CC4(C)CC(C)(CC(Cn5ncc(-c6ccc(N7CCCc8c7nnc(Nc7nc9ccccc9s7)c8C)nc6C(=O)O)c5C)(C4)C2)C3)cc1 [Example 80, 6-[3-(1,3-benzothiazol-2-ylamino)-4-methyl-6,7-dihydro-5H-pyrido[2,3-c]pyridazin-8-yl]-3-[1-[[3-[2-[14-[(2R)-2-[(1-fluorocyclopropanecarbonyl)amino]-3-[(2S,4R)-4-hydroxy-2-[[4-(4-methylthiazol-5-yl)phenyl]methylcarbamoyl]pyrrolidin-1-yl]-1,1-dimethyl-3-oxo-propyl]sulfanyltetradecyl-methyl-amino]ethoxy]-5,7-dimethyl-1-adamantyl]methyl]-5-methyl-pyrazol-4-yl]pyridine-2-carboxylic acid] | 92 | 6.11 | > 1670 | 3.57
Cc1ncsc1-c1ccc([C@H](C)NC(=O)[C@@H]2C[C@@H](O)CN2C(=O)[C@@H](NC(=O)C2CCN(C(=O)CCCCCCCN(C)CCOC34CC5(C)CC(C)(CC(Cn6ncc(-c7ccc(N8CCCc9c8nnc(Nc8nc%10ccccc%10s8)c9C)nc7C(=O)O)c6C)(C5)C3)C4)CC2)C(C)(C)C)cc1 [Example 81, 6-[3-(1,3-benzothiazol-2-ylamino)-4-methyl-6,7-dihydro-5H-pyrido[2,3-c]pyridazin-8-yl]-3-[1-[[3-[2-[[8-[4-[[(1S)-1-[(2S,4R)-4-hydroxy-2-[[(1S)-1-[4-(4-methylthiazol-5-yl)phenyl]ethyl]carbamoyl]pyrrolidine-1-carbonyl]-2,2-dimethyl-propyl]carbamoyl]-1-piperidyl]-8-oxo-octyl]-methyl-amino]ethoxy]-5,7-dimethyl-1-adamantyl]methyl]-5-methyl-pyrazol-4-yl]pyridine-2-carboxylic acid] | 203 | 15.1 | > 1670 | > 316
Cc1ncsc1-c1ccc([C@H](C)NC(=O)[C@@H]2C[C@@H](O)CN2C(=O)[C@@H](NC(=O)C2CCN(C(=O)CCCCCCCCCCN(C)CCOC34CC5(C)CC(C)(CC(Cn6ncc(-c7ccc(N8CCCc9c8nnc(Nc8nc%10ccccc%10s8)c9C)nc7C(=O)O)c6C)(C5)C3)C4)CC2)C(C)(C)C)cc1 [Example 82, 6-[3-(1,3-benzothiazol-2-ylamino)-4-methyl-6,7-dihydro-5H-pyrido[2,3-c]pyridazin-8-yl]-3-[1-[[3-[2-[[11-[4-[[(1S)-1-[(2S,4R)-4-hydroxy-2-[[(1S)-1-[4-(4-methylthiazol-5-yl)phenyl]ethyl]carbamoyl]pyrrolidine-1-carbonyl]-2,2-dimethyl-propyl]carbamoyl]-1-piperidyl]-11-oxo-undecyl]-methyl-amino]ethoxy]-5,7-dimethyl-1-adamantyl]methyl]-5-methyl-pyrazol-4-yl]pyridine-2-carboxylic acid] | 157 | 10 | > 1670 | > 316
Cc1ncsc1-c1ccc([C@H](C)NC(=O)[C@@H]2C[C@@H](O)CN2C(=O)[C@@H](NC(=O)C2CCN(C(=O)CCCCCCCCCN(C)CCOC34CC5(C)CC(C)(CC(Cn6ncc(-c7ccc(N8CCCc9c8nnc(Nc8nc%10ccccc%10s8)c9C)nc7C(=O)O)c6C)(C5)C3)C4)CC2)C(C)(C)C)cc1 [Example 84, 6-[3-(1,3-benzothiazol-2-ylamino)-4-methyl-6,7-dihydro-5H-pyrido[2,3-c]pyridazin-8-yl]-3-[1-[[3-[2-[[10-[4-[[(1S)-1-[(2S,4R)-4-hydroxy-2-[[(1S)-1-[4-(4-methylthiazol-5-yl)phenyl]ethyl]carbamoyl]pyrrolidine-1-carbonyl]-2,2-dimethyl-propyl]carbamoyl]-1-piperidyl]-10-oxo-decyl]-methyl-amino]ethoxy]-5,7-dimethyl-1-adamantyl]methyl]-5-methyl-pyrazol-4-yl]pyridine-2-carboxylic acid] | 171 | 18.1 | > 1670 | > 316
Cc1ncsc1-c1ccc(CNC(=O)[C@@H]2C[C@@H](O)CN2C(=O)[C@@H](NC(=O)C2(F)CC2)C(C)(C)C)c(OCCCCCCCCCCCCCN(C)CCOC23CC4(C)CC(C)(CC(Cn5ncc(-c6ccc(N7CCCc8c7nnc(Nc7nc9ccccc9s7)c8C)nc6C(=O)O)c5C)(C4)C2)C3)c1 [Example 85, 6-[3-(1,3-benzothiazol-2-ylamino)-4-methyl-6,7-dihydro-5H-pyrido[2,3-c]pyridazin-8-yl]-3-[1-[[3-[2-[13-[2-[[[(2S,4R)-1-[(2S)-2-[(1-fluorocyclopropanecarbonyl)amino]-3,3-dimethyl-butanoyl]-4-hydroxy-pyrrolidine-2-carbonyl]amino]methyl]-5-(4-methylthiazol-5-yl)phenoxy]tridecyl-methyl-amino]ethoxy]-5,7-dimethyl-1-adamantyl]methyl]-5-methyl-pyrazol-4-yl]pyridine-2-carboxylic acid] | 64 | 4.17 | 5 | 0.291
